# Reference: patent publication US6313096A, “Inhibitors of trypsin-like enzymes” (Trigen Limited, priority 2000, dated 2001)
# How the values were obtained:
# thrombin [1] = target: T1, thrombin (Homo sapiens, UniProt P00734); settings: reversible and irreversible inhibitors of thrombin; cited from earlier work
# thrombin [2] = target: T1, thrombin; assay: thrombin time determination; type: biochemical
# Procedure: The activity of the product as a thrombin inhibitor is measured by determination of the thrombin time essentially as described in European Patent Application 293 881, page 51. Using a 1 micromolar concentration of inhibitor, a mean thrombin time of 114 seconds is found, compared with 16 seconds in the absence of inhibitor.
thrombin inhibitor (in words) (thrombin [2]),"mean thrombin time (thrombin [2]; 1 micromolar concentration of inhibitor, 16 seconds in the absence of inhibitor) [s]",Compound,inhibition in vitro (thrombin [1])
,,NC(N)=NCCC[C@H](NC(=O)[C@@H]1CCCN1C(=O)[C@H](N)Cc1ccccc1)C(=O)CCl [D-Phe-Pro-Arg-CH2 Cl],~10^-8 M
,,N=C(N)NCCC[C@@H](C=O)NC(=O)[C@@H]1CCCN1C(=O)[C@H](N)Cc1ccccc1 [D-Phe-Pro-Arginal],~10^-8 M
strong thrombin inhibitor,114,Z-D-Phe-Pro-BOMe-OPin [formula XII],
